The results in this text go back to US9932300B2, “N,N′-diarylurea compounds and N,N′-diarylthiourea compounds as inhibitors of translation initiation” (President and Fellows of Harvard College, priority 2009, dated 2018).

The test system of the test is eIF2-GTP-Met-tRNAi ternary complex. As to the kind of experiment: Ternary complex assay (dual luciferase, firefly/renilla ratio) in stable KLN-tTA/pBISA-DL(ATF-4) cells; HTS and hit confirmation. It counts as cell-based, mouse. Also on record: Activity 10 uM / Activity 2.5 uM / Activity 5 uM: unit not given here. The conditions noted are these: confirmed hits of the screen (Table 5); for Activity 2.5 uM: compound at 2.5 uM; for Activity 10 uM: compound at 10 uM; for Activity 5 uM: compound at 5 uM.

Values joined by “and” are separate entries in the source; they are usually repeats but may differ in a detail not shown here. Equal entries are not always repeated.

With `CCSc1nnc(-c2ccccc2)nc1Cc1ccc(OC)cc1` [Compound 655141], the “Activity 2.5 uM” value was found to be 2.18 and the “Activity 10 uM” value is 3.91. In the same order, the values of `O=C1C(c2ccc([N+](=O)[O-])cc2)=C(Cl)C(=O)c2c(O)cccc21` [Compound 656075] are 2.33 and 7.97. With `O=C1C(Cl)=C(c2ccc([N+](=O)[O-])cc2)C(=O)c2c(O)cccc21` [Compound 656076], the “Activity 2.5 uM” value was found to be 4.6 and the “Activity 10 uM” value is 17.27. In the case of `CCN(CC)Cc1cc(Nc2c3ccccc3nc3c2[nH]c2ccccc23)cc(CN(CC)CC)c1O.Cl` [Compound 656711], the “Activity 2.5 uM” value was 0.59 and the “Activity 10 uM” value came to 6.66.

Consider `Cc1ccc(C2=Nc3cccc4cccc(c34)N2)cc1` [Compound 657189], for which the “Activity 2.5 uM” value is 2.65 and the “Activity 10 uM” value is 3.16. On the same counts, the results for `CC(=O)C1C(=O)C(=O)N(c2ccc([N+](=O)[O-])cc2)C1=O.[Na+]` (centres unmarked) [Compound 657424] are 1.17 and 3.36.

For `COc1ccc(-c2nc(Nc3ccccc3)sc2Cc2sc(Nc3ccccc3)nc2-c2ccc(OC)cc2)cc1` [Compound 658163], the “Activity 2.5 uM” value is given as 2.63 and the “Activity 10 uM” value was found to be 4.46. In the same order, the values of `CCN1CCNc2c3cc(OC)ccc3nc3c([N+](=O)[O-])ccc1c23` [Compound 658354] are 0.2379 and 6.609. Turning to `COc1ccc2nc3c([N+](=O)[O-])ccc4c3c(c2c1)NCCN4CCO` [Compound 658355], the “Activity 2.5 uM” value was 0.5 and the “Activity 10 uM” value came to 8.48. Turning to `COc1ccc2c(c1)c1c3c(ccc4ncn2c43)N(CCO)CCN=1` [Compound 658358], the “Activity 2.5 uM” value is recorded as 0.4 and the “Activity 10 uM” value is reported as 20.35. On the same counts, the results for `Cl.Cn1c(N)nc(-c2ccc(Cl)cc2)c1SSc1c(-c2ccc(Cl)cc2)nc(N)n1C` [Compound 658830] are 0.48 and 4.21. As to `CCn1c(O)c(C=Nc2ccccc2)s/c1=N/Nc1nc(C)cs1` [Compound 658916], the “Activity 2.5 uM” value was determined as 2.047 and the “Activity 10 uM” value is on record as 3.18. Turning to `O=C(CC(=O)Nc1ccccc1Cl)NNC(c1cc(N=Nc2ccc(Br)cc2)ccc1O)P(O)O` (centres unmarked) [Compound 659608], the “Activity 2.5 uM” value was found to be 1.34 and the “Activity 10 uM” value is on record as 3.07. In the same order, the values of `O=C1C=CC(=O)c2c1ccc1c3ccccc3n(-c3cccc([N+](=O)[O-])c3)c21` [Compound 661223] are 1.05 and 11.8. In the same order, the values of `Cn1c2ccccc2c2c(-c3ccccc3)cc3c(c21)C(=O)C=CC3=O` [Compound 661225] are 1.76 and 25.16. On the same counts, the results for `[Ru].[SH+]=C([SH2+])N1CCCCC1.[SH+]=C([SH2+])N1CCCCC1` [Compound 662875] are 10.55 and 40.72.

As to `O=c1n(-c2ccc(Cl)c(Cl)c2)c(=O)n(-c2ccc(Cl)c(Cl)c2)c(=O)n1-c1ccc(Cl)c(Cl)c1` [Compound 664259], the “Activity 2.5 uM” value turned out to be 2.76 and the “Activity 10 uM” value is reported as 4.24. As for `Cc1nc2ccc(Br)cc2c(=O)n1-c1ccc(NC2OC(CO)C(O)C(O)C2O)cc1` (centres unmarked) [Compound 665512], the “Activity 2.5 uM” value was 0.47 and the “Activity 10 uM” value turned out to be 15.46.

`c1cc(-c2ncc(-c3ccc4c(c3)CCCO4)o2)ccn1` [Compound 665702]: the “Activity 2.5 uM” value was 1.79 and the “Activity 10 uM” value was 3.38. In the case of `Cc1ccc(S(=O)(=O)n2c3c(c4ccccc42)CCN2C(=O)C(S(=O)(=O)c4ccccc4)=CCC32)cc1` (centres unmarked) [Compound 665910], the “Activity 2.5 uM” value came out at 0.72 and the “Activity 10 uM” value is on record as 4.69. For the compound `N#Cc1c(N)nc([Se]CC(=O)c2ccc(Cl)cc2)c(C#N)c1-c1ccco1` [Compound 666131], the “Activity 2.5 uM” value came out at 4.12 and the “Activity 10 uM” value came to 8.72. Take `COc1ccc(/C=N/Nc2nc3ccccc3c(=O)n2-c2ccccc2)cc1` [Compound 666356]: the “Activity 2.5 uM” value is 2.43 and the “Activity 10 uM” value worked out at 30.26.

Take `COc1ccc(C2Oc3c(cccc3OC)C=C2[N+](=O)[O-])cc1` (centres unmarked) [Compound 667223]: the “Activity 10 uM” value is 6.01 and 8.726. As to `COc1cccc2c1OC(c1ccc(C#N)cc1)C([N+](=O)[O-])=C2` (centres unmarked) [Compound 667226], the “Activity 2.5 uM” value came to 0.34 and the “Activity 10 uM” value was determined as 4.79. `S=C1CC(c2ccccc2)Sc2ccccc2N1` (centres unmarked) [Compound 667463]: the “Activity 2.5 uM” value worked out at 3.13 and the “Activity 10 uM” value was determined as 3.45. For the compound `O=[N+]([O-])C1=Cc2cc(Cl)ccc2OC1c1cccc2ccccc12` (centres unmarked) [Compound 667472], the “Activity 2.5 uM” value turned out to be 0.35 and the “Activity 10 uM” value came to 9.48. On the same counts, the results for `Cc1cccc(/C=N\NC(=S)N2CCCCC2)n1` [Compound 667875] are 4.59 and 7.27. In the same order, the values of `S=C(N/N=C/c1ccccn1)N1CC2CCC(CC2)C1` [Compound 667885] are 8.61 and 15.62.

Turning to `C=C1CC(C)(COc2ccc3c(C)cc(=O)oc3c2)OC1=O` (centres unmarked) [Compound 668262], the “Activity 2.5 uM” value is on record as 0.78 and the “Activity 10 uM” value turned out to be 3.33. On the same counts, the results for `COc1ccccc1NC(=S)N/N=C(/C)c1ccccn1` [Compound 668297] are 10.51 and 37.53.

As to `COc1ccccc1NC(=S)N/N=C/c1ccccn1` [Compound 668298], the “Activity 2.5 uM” value was 11.99 and the “Activity 10 uM” value is 30.06. In the case of `C/C(=N/NC(=S)Nc1ccccc1C)c1ccccn1` [Compound 668332], the “Activity 2.5 uM” value is reported as 27.24 and the “Activity 10 uM” value amounted to 63.38.

On to `C/C(=N/NC(=S)Nc1cccc(Cl)c1)c1cccc(/C(C)=N\NC(=S)Nc2cccc(Cl)c2)n1` [Compound 668484], for which the “Activity 2.5 uM” value is recorded as 1.59 and the “Activity 10 uM” value amounted to 3.57. On the same counts, the results for `Oc1[nH]c2ccccc2c1N=NC(=S)N1CCCC1` [Compound 668494] are 3.76 and 13.68.

With `O=C1C=CC(=O)c2c1ccc1c3ccccc3n(CCCCCn3c4ccccc4c4ccc5c(c43)C(=O)C=CC5=O)c21` [Compound 668605], the “Activity 2.5 uM” value is reported as 0.8 and the “Activity 10 uM” value came out at 3.17. `S=C(NCCc1ccccn1)N/N=C/c1ccccn1` [Compound 670779]: the “Activity 2.5 uM” value is 2.57 and 2.721; the “Activity 10 uM” value is 6.67 and 8.739. Consider `C/C(=N/NC(=S)NC(C)(C)C)c1ccccn1` [Compound 670788], for which the “Activity 2.5 uM” value turned out to be 6.58 and the “Activity 10 uM” value stood at 4.08. In the case of `S=C(N/N=C/c1ccccn1)Nc1ccc(Cl)cc1` [Compound 670965], the “Activity 2.5 uM” value was 50.7 and 44.32; the “Activity 10 uM” value is 23.32 and 25.3088.

Consider `S=C(NCc1ccccc1)N/N=C/c1ccccn1` [Compound 670969], for which the “Activity 2.5 uM” value is reported as 1.55 and the “Activity 10 uM” value was determined as 3.644. Turning to `[CH+]=CC1([O][Sn-]([IH+])([c]2ccccc2)[c]2ccccc2)CCCCCC1` [Compound 671441], the “Activity 2.5 uM” value worked out at 5.35. Regarding `Cc1cc[c]([Sn]([I])([O]C2(C=O)CCCCCC2)[c]2ccc(C)cc2)cc1` [Compound 671442], the “Activity 2.5 uM” value is 9.59 and the “Activity 10 uM” value is recorded as 7.03.

On to `CCCCCCCN1C(=O)C(O)(c2ccc(C3(O)C(=O)N(CCCCCCC)c4ccccc43)s2)c2ccccc21` (centres unmarked) [Compound 671896], for which the “Activity 2.5 uM” value is listed as 0.85 and the “Activity 10 uM” value was found to be 4.31.

For the compound `COc1ccc2nc3cccc([N+](=O)[O-])c3c(NCCCO)c2c1` [Compound 673797], the “Activity 2.5 uM” value turned out to be 2.54 and the “Activity 10 uM” value is 4.7.

Take `Cc1cn(C2OC(CO[Si](C)(C)C(C)(C)C)C(N(C)O[Si](C)(C)C(C)(C)C)C2[Se]c2ccccc2)c(=O)[nH]c1=O` (centres unmarked) [Compound 674469]: the “Activity 2.5 uM” value was 1.37 and the “Activity 10 uM” value is given as 23.82. On the same counts, the results for `Cc1cc(C)n(C(=C(C(Cl)=C(Cl)Cl)[N+](=O)[O-])n2nc(C)cc2C)n1` [Compound 678036] are 0.85 and 12.77. In the same order, the values of `CC(C)[Si]1(C(C)C)OCC2OC(N3C(=O)NC(=O)C[C@@H]3C(O)c3ccccc3)CC2O[Si](C(C)C)(C(C)C)O1` (some centres unmarked) [Compound 680834] are 0.76 and 4.25. On to `CN1/C(=C/C=C/C=C/C=C2C(=O)c3ccccc3C2=O)C(C)(C)c2ccccc21` [Compound 682512], for which the “Activity 2.5 uM” value was found to be 0.57 and the “Activity 10 uM” value came to 10.02.

For `c1ccc(-c2ccc(N=NN3CCCC3)cc2)cc1` [Compound 687753], the “Activity 5 uM” value came out at 4.922 and the “Activity 10 uM” value is 6.931. Take `C=CC(=O)N1C/C(=C\c2ccc(Cl)cc2)C(=O)/C(=C/c2ccc(Cl)cc2)C1` [Compound 687849]: the “Activity 2.5 uM” value was found to be 0.88 and the “Activity 10 uM” value is 12.02. As to `CN(C)c1ccc(/C=C2\CCCCCC2=O)cc1` [Compound 689962], the “Activity 5 uM” value stood at 4.784 and the “Activity 10 uM” value was 7.987. For the compound `Cn1/c(=N\S(=O)(=O)c2ccccc2)n(S(=O)(=O)c2ccccc2)c2ccccc21` [Compound 690404], the “Activity 2.5 uM” value is recorded as 1.46 and the “Activity 10 uM” value came to 3.03. `COc1cc(/C=C2\CCC(C)/C(=C\c3cc(OC)c(OC)c(OC)c3)C2=O)cc(OC)c1OC` (centres unmarked) [Compound 690734]: the “Activity 2.5 uM” value stood at 0.48 and the “Activity 10 uM” value is listed as 10.02.

`FC(F)(Sc1ccccc1)c1nc2ccccc2o1` [Compound 691255]: the “Activity 5 uM” value was determined as 3.963 and the “Activity 10 uM” value was 5.5705.
